Laboratory results: article PMC10379611 (International Journal of Molecular Sciences, 2023)

What was measured:
CNT2 = biological target: T1, CNT2 (Homo sapiens, UniProt O43868); assay: CNT2-mediated uridine uptake in CNT2-MDCKII cells; type: cell-based
T1 construct: expressed in transfected cells; host or cells: MDCKII (lentiviral transduction)
T1 sequence (O43868 1-658): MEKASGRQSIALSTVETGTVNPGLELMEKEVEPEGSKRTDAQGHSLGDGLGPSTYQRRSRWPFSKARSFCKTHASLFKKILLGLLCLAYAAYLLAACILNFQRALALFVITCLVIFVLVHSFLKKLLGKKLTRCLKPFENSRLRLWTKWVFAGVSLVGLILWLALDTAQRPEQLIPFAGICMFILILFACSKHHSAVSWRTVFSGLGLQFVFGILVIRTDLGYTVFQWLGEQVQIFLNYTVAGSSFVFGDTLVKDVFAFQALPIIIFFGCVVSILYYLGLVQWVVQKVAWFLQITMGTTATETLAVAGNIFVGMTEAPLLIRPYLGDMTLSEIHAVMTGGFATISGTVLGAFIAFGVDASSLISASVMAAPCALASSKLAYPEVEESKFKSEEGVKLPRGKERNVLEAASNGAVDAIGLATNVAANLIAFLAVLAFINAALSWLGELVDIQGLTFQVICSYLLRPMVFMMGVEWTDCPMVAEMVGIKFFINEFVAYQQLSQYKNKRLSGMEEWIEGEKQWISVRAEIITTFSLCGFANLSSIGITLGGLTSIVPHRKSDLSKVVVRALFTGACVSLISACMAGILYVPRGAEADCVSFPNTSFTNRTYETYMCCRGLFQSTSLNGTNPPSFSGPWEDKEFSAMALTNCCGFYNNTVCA
Method: ENT and CNT transporter interactions were investigated in transporter-overexpressing cell lines. Madin-Darby Canine Kidney II (MDCKII) cell lines overexpressing the human uptake transporters CNT1, CNT2, ENT1, and ENT2 were generated via lentiviral transduction. Cell cultures were maintained in Dulbecco’s modified Eagle’s medium (DMEM) and 4500 mg/L of glucose supplemented with GlutaMax^TM, 10% v/v fetal bovine serum (FBS), 100 units/mL penicillin, and 100 µg/mL streptomycin (all from Gibco/ThermoFisher, Waltham, MA, USA) at 37 °C in 5% CO2 at 95% humidity. For uptake inhibition assays, transporter-expressing cells and mock-transduced control cells were seeded on 96-well tissue culture plates at a density of 1 × 10^5 cells/well. Twenty-four hours after seeding, cells were rinsed twice with Krebs-Henseleit buffer (KH buffer, pH 7.4) and then preincubated for 30 min with solutions containing serial dilutions of the test compounds in KH at room temperature. Following preincubation, the solutions were removed, the cells were rinsed twice with KH buffer, and coincubation was started with a suitable radiolabeled substrate and the diluted series of test compounds. Assay conditions were as follows: 1 µM uridine (traced with 0.1 µCi ^3H-Uridine/well), 30 s (CNT1), and 1 min (CNT2, ENT1) incubations; 1 µM adenosine (traced with 0.1 µCi ^3H-Adenosine/well) and 2 min (ENT2) incubation. All experiments were conducted at room temperature. […] To determine the amounts of accumulated radiolabeled substrates, cell lysates mixed with a liquid scintillation cocktail were measured with a MicroBeta2 microplate counter (PerkinElmer, Singapore).
(§1) Transporter-specific accumulation of the probe substrate was calculated using the following formula: ACCSpec = ACCTRP − ACCMock, where ACCTRP is the accumulation of the probe in transporter-expressing cells and ACCMock is the accumulation of the probe in control cells. Relative transporter-specific accumulation values were calculated as percentages of the control value (with vehicle only).

ENT1 = biological target: T2, ENT1 (Homo sapiens, UniProt Q99808); assay: ENT1-mediated uridine uptake in ENT1-MDCKII cells; type: cell-based
T2 construct: expressed in transfected cells; host or cells: MDCKII (lentiviral transduction)
T2 sequence (Q99808 1-456): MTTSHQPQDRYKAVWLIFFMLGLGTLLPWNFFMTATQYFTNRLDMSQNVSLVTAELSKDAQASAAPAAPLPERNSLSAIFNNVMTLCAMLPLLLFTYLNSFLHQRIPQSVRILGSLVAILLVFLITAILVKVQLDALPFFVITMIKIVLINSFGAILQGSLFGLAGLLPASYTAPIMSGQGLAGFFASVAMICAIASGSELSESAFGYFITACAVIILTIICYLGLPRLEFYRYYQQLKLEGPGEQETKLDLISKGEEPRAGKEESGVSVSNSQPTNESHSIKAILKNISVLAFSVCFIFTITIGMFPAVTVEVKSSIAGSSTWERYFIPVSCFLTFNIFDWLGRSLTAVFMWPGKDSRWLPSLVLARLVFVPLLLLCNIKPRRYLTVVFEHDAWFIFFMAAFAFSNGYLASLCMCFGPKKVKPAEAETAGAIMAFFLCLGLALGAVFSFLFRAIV
Method: ENT and CNT transporter interactions were investigated in transporter-overexpressing cell lines. Madin-Darby Canine Kidney II (MDCKII) cell lines overexpressing the human uptake transporters CNT1, CNT2, ENT1, and ENT2 were generated via lentiviral transduction. Cell cultures were maintained in Dulbecco’s modified Eagle’s medium (DMEM) and 4500 mg/L of glucose supplemented with GlutaMax^TM, 10% v/v fetal bovine serum (FBS), 100 units/mL penicillin, and 100 µg/mL streptomycin (all from Gibco/ThermoFisher, Waltham, MA, USA) at 37 °C in 5% CO2 at 95% humidity. For uptake inhibition assays, transporter-expressing cells and mock-transduced control cells were seeded on 96-well tissue culture plates at a density of 1 × 10^5 cells/well. […] To determine the amounts of accumulated radiolabeled substrates, cell lysates mixed with a liquid scintillation cocktail were measured with a MicroBeta2 microplate counter (PerkinElmer, Singapore).
as §1

Row | Compound | inhibition of CNT2-mediated uridine uptake (CNT2) | IC50 (CNT2; 1 µM uridine) | ENT1-mediated uridine transport, inhibited to % of the full activity (ENT1; at 200 μM) | ENT1 uridine transport remaining, % of full activity at 200 µM (ENT1; read-out: ENT1-mediated uridine transport, inhibited to % of the full activity)
1 | O=c1nc(NO)ccn1[C@@H]1O[C@H](CO)[C@@H](O)[C@H]1O [EIDD-1931] | strong inhibition | 10.2 µM | about 50% | –
2 | CC(C)C(=O)OC[C@H]1O[C@@H](n2ccc(NO)nc2=O)[C@H](O)[C@@H]1O [EIDD-2801, Molnupiravir] | less potently inhibited | – | – | ~50%
